Among the data in PubChem BioAssay (NCI) are TGI and GI50 values, retold here.

Test systems include MALME-3M melanoma; EKVX NSCLC; M14 melanoma; MCF7 breast; OVCAR-3 ovarian; 786-0 renal; BT-549 breast; K-562 leukemia; HL-60(TB) leukemia; UACC-257 melanoma.
What all share (test): NCI tumour cell line growth inhibition, 48 h

The structures appear in SMILES notation. Values joined by “and” are separate entries in the source; they are usually repeats but may differ in a detail not shown here. Equal values may be shown once.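 The compound was tested at five concentrations on cells cultured in 96-well plates, with a 48-hour exposure period. At the GI50, growth is halved. TGI marks complete inhibition of growth.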

For `Clc1ccc(C2Nc3ccccc3C3=NCCN32)cc1` (stereo not given), the TGI in the test on MALME-3M melanoma is 32.1 µM; with EKVX NSCLC, 93.7 µM; in the test with M14 melanoma, 30.6 µM; in the test with MCF7 breast it was 57.3 µM; in the test on OVCAR-3 ovarian, more than 100 µM; with 786-0 renal, 48.9 µM. In addition, the TGI in the test with BT-549 breast amounted to 56.5 µM; in the test with K-562 leukemia, 46.2 µM; in the test on HL-60(TB) leukemia it was 57.1 µM; in the test on UACC-257 melanoma, 36 µM.

Regarding `O=C(N/N=C(/COc1ccc([N+](=O)[O-])cc1)N=Cc1ccncc1)c1ccncc1`, the TGI in the test on MALME-3M melanoma, with EKVX NSCLC, with M14 melanoma, with MCF7 breast, with OVCAR-3 ovarian and with 786-0 renal was more than 100 µM each time. The TGI with BT-549 breast, in the test on K-562 leukemia, in the test on HL-60(TB) leukemia and with UACC-257 melanoma was more than 100 µM throughout.

In the case of `FC1C2=C(SC1(F)F)C1CCC2C1` (stereo not given), the TGI with MALME-3M melanoma, in the test with EKVX NSCLC, with M14 melanoma, with MCF7 breast, in the test with OVCAR-3 ovarian and in the test on 786-0 renal was more than 100 µM throughout. For the same compound, the TGI in the test with BT-549 breast, in the test with K-562 leukemia, in the test on HL-60(TB) leukemia and in the test with UACC-257 melanoma was more than 100 µM in each case.

As for `Cc1c2c(OCCN3CCCCC3)nn(C)c(=O)c2c(C)n1-c1ccccc1`, the TGI in the test with MALME-3M melanoma is 35.3 µM; with EKVX NSCLC, more than 100 µM; in the test on M14 melanoma, 33.4 µM; with MCF7 breast it was more than 100 µM; with OVCAR-3 ovarian it was more than 100 µM; in the test with 786-0 renal, 36.7 µM. In addition, the TGI with BT-549 breast was more than 100 µM; in the test on K-562 leukemia, more than 100 µM; in the test with HL-60(TB) leukemia, more than 100 µM; with UACC-257 melanoma it was 42.6 µM.

In the case of `COc1cc2c(=O)cnoc2cc1O`, the TGI in the test with MALME-3M melanoma, in the test on EKVX NSCLC, with M14 melanoma, in the test on MCF7 breast, in the test on OVCAR-3 ovarian and with 786-0 renal was more than 100 µM each time. Besides, the TGI in the test with BT-549 breast, in the test on K-562 leukemia, with HL-60(TB) leukemia and with UACC-257 melanoma was more than 100 µM each time.

As to `C=C1C(=O)O[C@@H]2C[C@]3(C)CC[C@]4(C)[C@H](CC[C@@H]5[C@@]6(C)CCC(=O)C(C)(C)[C@@H]6CC[C@]54C)[C@H]3[C@H]12`, the TGI in the test with MALME-3M melanoma is 29.7 µM; in the test on EKVX NSCLC it was 38 µM; in the test with M14 melanoma, 31.3 µM; in the test with MCF7 breast it was 21.4 µM; in the test on OVCAR-3 ovarian, 35.5 µM; in the test with 786-0 renal, 30.2 µM. In addition, the TGI was 37.4 µM in the test with BT-549 breast, 16.7 µM in the test with K-562 leukemia, 3.72 µM in the test on HL-60(TB) leukemia and 32.8 µM in the test with UACC-257 melanoma.

With `O=C(O)CC1NCc2cc3ccccc3nc21` (stereo not given), the TGI in the test on MALME-3M melanoma, in the test with EKVX NSCLC, in the test on M14 melanoma, in the test on MCF7 breast, in the test with OVCAR-3 ovarian and in the test on 786-0 renal was more than 100 µM throughout. In addition, the TGI with BT-549 breast, with K-562 leukemia, in the test with HL-60(TB) leukemia and in the test with UACC-257 melanoma was more than 100 µM in each case.

Consider `COc1ccc2cc(CN3CCC(C4CCNCC4)CC3)ccc2c1`, for which the TGI in the test on MALME-3M melanoma was determined as 3.02 µM; in the test with EKVX NSCLC, 21.2 µM; with M14 melanoma, 3.15 µM; in the test on MCF7 breast, 6.32 µM; with OVCAR-3 ovarian it was 15.8 µM; with 786-0 renal it was 3 µM. Besides, the TGI with BT-549 breast worked out at 24.3 µM; in the test on K-562 leukemia it was 3.22 µM; in the test with HL-60(TB) leukemia it was 3.38 µM; in the test with UACC-257 melanoma, 3.47 µM.

For the compound `CC(=O)OCC1OC(Oc2cc(C)c(O)cc2C/C=C(\C)CC/C=C(\C)CC(=O)CC(C)C)C(O)C(OC(C)=O)C1OC(C)=O` (stereo not given), the TGI was more than 50 µM with MALME-3M melanoma; 16.3 µM in the test with EKVX NSCLC; 25.7 µM with M14 melanoma; 43.8 µM in the test on MCF7 breast; 30 µM in the test with OVCAR-3 ovarian; more than 50 µM in the test with 786-0 renal. Moreover, the TGI is 31.2 µM in the test with BT-549 breast, 23.2 µM in the test on K-562 leukemia, 23.4 µM with HL-60(TB) leukemia and 31.7 µM with UACC-257 melanoma.

Turning to `CCCCCCCCCCC1OC([C@@H](O)CC[C@H](O)C2CC[C@@H](CCCCCCCC(O)CC3=CC(C)OC3=O)O2)CCC1O` (stereo not given in full), the TGI is more than 25 µM with MALME-3M melanoma; more than 25 µM with EKVX NSCLC; more than 17.5 µM in the test with M14 melanoma; more than 25 µM in the test on MCF7 breast; more than 23.5 µM in the test on OVCAR-3 ovarian; more than 25 µM in the test on 786-0 renal. Besides, the TGI with BT-549 breast was 7.53 µM and > 25 µM; in the test with K-562 leukemia, more than 25 µM; in the test on HL-60(TB) leukemia it was more than 25 µM; in the test on UACC-257 melanoma, more than 18.4 µM. The GI50 in the test with EKVX NSCLC is 9.5 µM; with M14 melanoma it was 4.81 µM; with MCF7 breast, 1.34 µM; in the test with OVCAR-3 ovarian, 1.69 µM; in the test with BT-549 breast it was 2.34 µM; in the test with K-562 leukemia, 2.48 µM. The GI50 is 4.47 µM in the test with HL-60(TB) leukemia and 2.51 µM in the test on UACC-257 melanoma.

As to `CC1OC(OC2C(OC(=O)[C@]34CCC(C)(C)C[C@H]3C3=CC[C@@H]5[C@@]6(C)CC[C@H](OC7OC(C(=O)O)C(O)C(OC8OCC(O)C(O)C8O)C7O)C(C)(C)[C@@H]6CC[C@@]5(C)[C@]3(C)CC4)OCC(O)C2O)C(O)C(OC2OCC(O)C(O)C2O)C1OC1OCC(O)C(OC2OCC(O)C(O)C2O)C1O` (stereo not given in full), the GI50 in the test with MALME-3M melanoma was 10.6 µM and 28.6 µM; in the test with M14 melanoma it was 5.97 µM and 19.2 µM; with OVCAR-3 ovarian, 13 µM and 35 µM; in the test with BT-549 breast, 9.13 µM and 20.3 µM; with K-562 leukemia, 7.42 µM and 17.1 µM; with HL-60(TB) leukemia it was 2.28 µM and 12.6 µM. Moreover, in the test with UACC-257 melanoma, the GI50 is 7.06 µM and 16.6 µM. Also, the TGI with MALME-3M melanoma was 25.7 µM and 91 µM; in the test with EKVX NSCLC, 22.6 µM and 35.7 µM; in the test with M14 melanoma it was 17 µM and 34 µM; with MCF7 breast it was 50.7 µM and > 100 µM; in the test on OVCAR-3 ovarian, 50.4 µM and > 100 µM; in the test on 786-0 renal, 25.7 µM and 43 µM. In addition, the TGI with BT-549 breast was 25.6 µM and 46.8 µM; in the test on K-562 leukemia it was 21.4 µM and 33.6 µM; in the test with HL-60(TB) leukemia, 6.18 µM and 29.5 µM; in the test with UACC-257 melanoma, 20.2 µM and 32.5 µM.
